Results: US7166637B2, “Hydroxyindoles, their use as inhibitors of phosphodiesterase 4, and processes for preparing them” (Elbion AG, priority 2002, dated 2007)

The compounds below were run against PDE 4 (cytosolic fraction from human polymorphonuclear lymphocytes (PMNLs)) (assay: Inhibition of phosphodiesterase 4 (SPA assay, [3H]-cAMP substrate)). Settings: enzyme preparation from human PMNLs; 0.5 μM [3H]-cAMP; 37° C., 30 minutes.
Format: biochemical
Description: The PDE 4 activity is determined using enzyme preparations from human polymorphonuclear lymphocytes (PMNLs).
Human blood (buffy coats) was anticoagulated with citrate. The platelet-rich plasma in the supernatant is separated from the erythrocytes and leucocytes by centrifuging at 700×g for 20 minutes at room temperature (RT). The PMNLs for the PDE 4 determination are isolated by means of a subsequent dextran sedimentation followed by a gradient centrifugation using Ficoll-Paque. After the cells have been washed twice, the erythrocytes which are still present are lysed within 6 minutes by adding 10 ml of hypotonic buffer (155 mM NH4Cl, 10 mM NaHCO3, 0.1 mM EDTA, pH=7.4) at 4° C. The PMNLs, which are still intact, are washed a further two times with PBS and lysed by ultrasonication. The supernatant obtained after centrifuging at 48 000×g at 4° C. for one hour contains the cytosolic PDE 4 fraction and is used for the PDE 4 measurements.
The phosphodiesterase activity is measured using a modified Amersham Pharmacia Biotech method, i.e. an SPA (scintillation proximity assay) assay. The reaction mixtures contain buffer (50 mM tris-HCl (pH 7.4), 5 mM MgCl2, 100 μM cGMP), varying concentrations of the inhibitors, and the corresponding enzyme preparation. The reaction is started by adding the substrate, i.e. 0.5 μM [^3H]-cAMP. The final volume is 100 μl. Test substances are prepared as stock solutions in DMSO. The concentration of DMSO in the reaction mixture is 1% v/v. This DMSO concentration has no effect on PDE activity. After the reaction has been started by adding the substrate, the samples are incubated at 37° C. for 30 minutes. The reaction is stopped by adding a defined quantity of SPA beads and the samples are measured in a beta counter after one hour. The nonspecific enzyme activity (i.e. the blank) is determined in the presence of 100 μM rolipram and subtracted from the test values. The incubation mixtures for the PDE 4 assay contain 100 μM cGMP in order to inhibit any contamination of PDE 3 which may be present.

| Compound | IC50 |
| --- | --- |
| O=C(Nc1c(Cl)cncc1Cl)C(=O)c1cn(Cc2ccc(Cl)cc2)c2c(O)cccc12 [Compound 2, N-(3,5-dichloropyrdin-4-yl)-[1-(4-chlorobenzyl)-7-hydroxyindol-3-yl]glyoxylamide] | 2 nM |
| O=C(Nc1c(Cl)cncc1Cl)C(=O)c1cn(Cc2ccc(F)cc2)c2cccc(O)c12 [Compound 4] | 938 nM |
| O=C(Nc1c(Cl)cncc1Cl)C(=O)c1cn(Cc2ccc(F)cc2)c2c(O)cccc12 [Compound 5] | 15 nM |
| O=C(Nc1c(Cl)cncc1Cl)C(=O)c1cn(Cc2ccccc2F)c2c(O)cccc12 [Compound 6] | 1 nM |
| O=C(Nc1c(Cl)cncc1Cl)C(=O)c1cn(Cc2cccc([N+](=O)[O-])c2)c2c(O)cccc12 [Compound 7] | 2 nM |
| O=C(Nc1c(Cl)cncc1Cl)C(=O)c1cn(Cc2c(F)cccc2F)c2c(O)cccc12 [Compound 8] | 2 nM |
| CC(C)Cn1cc(C(=O)C(=O)Nc2c(Cl)cncc2Cl)c2cccc(O)c21 [Compound 15] | 20 nM |
| O=C(Nc1c(Cl)cncc1Cl)C(=O)c1cn(CC2CC2)c2c(O)cccc12 [Compound 16] | 30 nM |
| O=C(Nc1c(Cl)cccc1Cl)C(=O)c1cn(Cc2ccc(F)cc2)c2c(O)cccc12 [Compound 17] | 141 nM |
| O=C(Nc1c(Cl)cncc1Cl)C(=O)c1cn(Cc2ccc(O)cc2)c2c(O)cccc12 [Compound 22] | 3 nM |
